Measured values: patent US7514555B2, “Compounds for the treatment of metabolic disorders” (Wellstat Therapeutics Corporation, priority 2003, dated 2009)
Entries after “also recorded” stand apart in the source; their conditions may differ.

How the values were obtained:
db/db mice [1] = test: Antidiabetic effects in db/db mice, daily oral dosing for 2 weeks; type: in vivo; conditions: for Glucose / Glucose (% of Control) / Free Fatty Acids ± SEM / Glucose ± SEM / Triglycerides ± SEM: 100 mg/kg daily oral; for Glucose / Glucose (% of Control): 2 weeks; for Glucose (% of Control): relative to vehicle control; for effect on blood glucose (in words) / effect on free fatty acids (in words) / effect on triglycerides (in words): 2 weeks of daily oral dosing; for Free Fatty Acids ± SEM / Glucose ± SEM / Triglycerides ± SEM: plasma serum, 2 weeks (Table IV)
Description: (§1) Db/db mice have a defect in leptin signaling, leading to hyperphagia, obesity and diabetes. Moreover, unlike ob/ob mice on a C57BL/6J background, db/db mice on a C57BLKS background undergo failure of their insulin-producing pancreatic islet cells, resulting in progression from hyperinsulinemia (associated with peripheral insulin resistance) to hypoinsulinemic diabetes.
(§2) Male obese (db/db homozygote) C57BL/Ksola mice approximately 8 weeks of age, were obtained from Jackson Labs (Bar Harbor, Me.) and randomly assigned into groups of 5-7 animals such that the body weights (40-45 g) and serum glucose levels (≧300 mg/dl in fed state) were similar between groups; male lean (db/+heterozygote) mice served as cohort controls. A minimum of 7 days was allowed for adaptation after arrival. All animals were maintained under controlled temperature (23° C.), relative humidity (50±5%) and light (7:00-19:00), and allowed free access to standard chow (Formulab Diet 5008, Quality Lab Products, Elkridge, Md.) and water.
[…] At the end of the treatment period 100 μl of venous blood was withdrawn in a heparinized capillary tube from the retro-orbital sinus for serum chemistry analysis.
The same procedure as Example 2 was followed.

db/db mice [2] = test: Antidiabetic effects in db/db mice, daily oral dosing for 4 weeks; type: in vivo; conditions: for effect on blood glucose (in words) / effect on free fatty acids (in words) / effect on serum triglycerides (in words): 4 weeks of daily oral dosing; for effect on blood glucose (in words): versus vehicle; for effect on free fatty acids (in words) / effect on serum triglycerides (in words): versus vehicle-treated db/db mice; for Glucose ± SEM: serum glucose; for Glucose ± SEM / Free Fatty Acids ± SEM / Triglycerides ± SEM: 100 mg/kg daily oral, 4 weeks; for Free Fatty Acids ± SEM / Triglycerides ± SEM: serum
Description: as §1, §2
Treatment cohorts were given daily oral doses of vehicle, Compound BI (100 mg/kg), or Compound CR (100 mg/kg) for 4 weeks. At the end of the treatment period 100 μl of venous blood was withdrawn in a heparinized capillary tube from the retro-orbital sinus for serum chemistry analysis.

Compound	Glucose (db/db mice [1]) [mg/dL]	Glucose (% of Control) (db/db mice [1])	effect on blood glucose (in words) (db/db mice [1])	effect on free fatty acids (in words) (db/db mice [1])	effect on triglycerides (in words) (db/db mice [1])	Free Fatty Acids ± SEM (db/db mice [1])	Glucose ± SEM (db/db mice [1])	Triglycerides ± SEM (db/db mice [1])	effect on blood glucose (in words) (db/db mice [2])	effect on free fatty acids (in words) (db/db mice [2])	effect on serum triglycerides (in words) (db/db mice [2])	Glucose ± SEM (db/db mice [2]) [mg/dL]	Free Fatty Acids ± SEM (db/db mice [2]) [µM]	Triglycerides ± SEM (db/db mice [2]) [mg/dL]
Cc1cccc(C)c1COc1cccc([C@H](O)CCC(=O)O)c1 [Compound CR, 4-(3-(2,6-Dimethylbenzyloxy)-phenyl)-4(R)-hydroxybutanoic acid]	263.2 ± 59.0	35 ± 8 % of Control	significant reduction	not CR caused a decrease	markedly reduce	1326.3 ± 124.2	263.2 ± 59.0	86.3 ± 9.4	significant reduction	reduced; also recorded: did result in a decrease	reduced	235 ± 49	1634 ± 78	182 ± 29
Cc1cccc(C)c1COc1cccc(C(=O)CCC(=O)O)c1 [Compound BI, 4-(3-(2,6-Dimethylbenzyloxy)-phenyl)-4-oxobutanoic acid, reference compound]	317.4 ± 48.0	42 ± 6 % of Control	significant reduction	caused a decrease	markedly reduce	1070.3 ± 96.4	317.4 ± 48.0	136.3 ± 18.1	significant reduction	reduced	reduced	189 ± 25	1387 ± 101	125 ± 11
